Reference: patent publication US20240190874A1, “SMALL MOLECULE DEGRADERS OF ANDROGEN RECEPTOR” (THE REGENTS OF THE UNIVERSITY OF MICHIGAN, priority 2021, published 2024)

Columns and labels:
Type in all cases: cell-based
AR = biological target: T1, AR (Homo sapiens, UniProt P10275); assay: Degradation of AR in VCaP cells; conditions: VCaP cells; for Dmax: VCaP
T1 construct: Degradation of AR; Cellular potency; host or cells: VCaP cells
T1 sequence (P10275 1-920): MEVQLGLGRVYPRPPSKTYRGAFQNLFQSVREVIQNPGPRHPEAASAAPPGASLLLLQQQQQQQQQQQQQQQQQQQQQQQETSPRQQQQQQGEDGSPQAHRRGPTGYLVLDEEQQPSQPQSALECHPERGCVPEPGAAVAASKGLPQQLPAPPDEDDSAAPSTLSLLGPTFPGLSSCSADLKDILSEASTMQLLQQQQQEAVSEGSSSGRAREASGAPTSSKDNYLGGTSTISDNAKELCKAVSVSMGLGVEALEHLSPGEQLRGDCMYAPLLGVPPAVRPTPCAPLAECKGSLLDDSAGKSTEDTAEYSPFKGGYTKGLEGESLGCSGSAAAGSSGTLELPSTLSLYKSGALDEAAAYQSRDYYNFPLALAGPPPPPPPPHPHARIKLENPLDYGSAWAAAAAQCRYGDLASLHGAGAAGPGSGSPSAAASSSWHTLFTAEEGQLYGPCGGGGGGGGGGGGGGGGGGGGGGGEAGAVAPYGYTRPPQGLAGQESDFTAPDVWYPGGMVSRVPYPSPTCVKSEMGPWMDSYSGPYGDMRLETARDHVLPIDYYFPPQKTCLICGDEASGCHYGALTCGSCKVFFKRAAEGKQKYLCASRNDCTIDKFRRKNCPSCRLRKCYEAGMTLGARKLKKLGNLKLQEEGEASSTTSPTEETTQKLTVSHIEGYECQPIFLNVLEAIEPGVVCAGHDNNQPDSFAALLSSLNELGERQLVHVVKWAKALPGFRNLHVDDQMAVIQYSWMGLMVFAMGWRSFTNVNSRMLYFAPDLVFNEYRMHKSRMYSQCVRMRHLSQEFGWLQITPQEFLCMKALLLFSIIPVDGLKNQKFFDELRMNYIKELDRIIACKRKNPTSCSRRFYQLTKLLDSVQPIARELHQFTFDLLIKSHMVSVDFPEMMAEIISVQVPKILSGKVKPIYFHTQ
Description: (§1) Biological Assays. LNCaP and VCaP cells used were purchased from American Type Culture Collection (ATCC). LNCaP were grown in RPMI 1640 (Invitrogen) and VCaP cells were grown in DMEM with Glutamax (Invitrogen). All of the cells were supplemented with 10% fetal bovine serum (Invitrogen) at 37° C. in a humidified 5% CO2 incubator.

LNCaP cells = assay: Cellular potency (IC50) in LNCaP cells; conditions: Homo sapiens, LNCaP
Description: as §1

VCaP cells = assay: Cellular potency (IC50) in VCaP cells; conditions: Homo sapiens, VCaP
Description: as §1

| Structure (SMILES) | DC50 (AR) [µM] | Dmax (AR) [%] | IC50 (LNCaP cells) [µM] | IC50 (VCaP cells) [µM] |
| --- | --- | --- | --- | --- |
| C[C@H]1CC2(CCN(c3ncc(C(=O)N4CCN(C5CN(c6ccc7c(c6)C(=O)N(C6CCC(=O)NC6=O)C7=O)C5)CC4)s3)CC2)CN1c1ccc(C#N)c(Cl)c1 (stereo partly shown) [compound 136] | < 0.001 | > 90 | < 0.01 | < 0.01 |
| C[C@H]1CC2(CCN(c3cnc(C(=O)N4CCN(C5CN(c6ccc7c(c6)C(=O)N(C6CCC(=O)NC6=O)C7=O)C5)CC4)s3)CC2)CN1c1ccc(C#N)c(Cl)c1 (stereo partly shown) [compound 137] | < 0.01 | 70 to 90 | < 0.1 | < 0.1 |
| C[C@H]1CC2(CCN(c3ccc(C(=O)N4CCC(N5Cc6cc7c(cc6C5)C(=O)N(C5CCC(=O)NC5=O)C7=O)CC4)s3)CC2)CN1c1ccc(C#N)c(Cl)c1 (stereo partly shown) [compound 138] | < 0.01 | 70 to 90 | < 0.1 | < 0.1 |
| C[C@H]1CC2(CCN(c3ncc(C(=O)N4CCC(N5Cc6cc7c(cc6C5)C(=O)N(C5CCC(=O)NC5=O)C7=O)CC4)s3)CC2)CN1c1ccc(C#N)c(Cl)c1 (stereo partly shown) [compound 139] | < 0.01 | 70 to 90 | < 0.1 | < 0.1 |
| C[C@H]1CC2(CCN(c3ccc(S(=O)(=O)C4CN(C(=O)CN5Cc6cc7c(cc6C5)C(=O)N(C5CCC(=O)NC5=O)C7=O)C4)cc3)CC2)CN1c1ccc(C#N)c(Cl)c1 (stereo partly shown) [compound 149] | < 0.001 | – | < 0.01 | < 0.1 |
| C[C@H]1CC2(CCN(c3ccc(S(=O)(=O)C4CCN(C(=O)CN5Cc6cc7c(cc6C5)C(=O)N(C5CCC(=O)NC5=O)C7=O)CC4)cc3)CC2)CN1c1ccc(C#N)c(Cl)c1 (stereo partly shown) [compound 152] | < 0.001 | – | < 0.1 | < 0.1 |
| C[C@H]1CC2(CCN(c3ccc(CN4CCN(C5CCN(c6ccc7c(c6)C(=O)N(C6CCC(=O)NC6=O)C7=O)CC5)CC4)cn3)CC2)CN1c1ccc(C#N)c(Cl)c1 (stereo partly shown) [compound 154] | < 0.001 | – | < 0.01 | < 0.1 |
| C[C@H]1CC2(CCN(c3ccc(C(=O)N4CCC(C(=O)CN5Cc6cc7c(cc6C5)C(=O)N(C5CCC(=O)NC5=O)C7=O)CC4)nc3)CC2)CN1c1ccc(C#N)c(Cl)c1 (stereo partly shown) [compound 160] | < 0.001 | – | < 0.01 | < 1 |
| C[C@H]1CC2(CCN(c3ccc(S(=O)(=O)C4CCN(C5CCN(c6ccc7c(c6)C(=O)N(C6CCC(=O)NC6=O)C7=O)CC5)CC4)cc3)CC2)CN1c1ccc(C#N)c(Cl)c1 (stereo partly shown) [compound 161] | < 0.001 | – | < 0.01 | < 0.01 |
| C[C@H]1CC2(CCN(c3ccc(S(=O)(=O)C4CCN(CC5CCN(c6ccc7c(c6)C(=O)N(C6CCC(=O)NC6=O)C7=O)CC5)CC4)cc3)CC2)CN1c1ccc(C#N)c(Cl)c1 (stereo partly shown) [compound 162] | < 0.001 | – | < 0.01 | < 0.01 |
| C[C@H]1CC2(CCN(c3ccc(S(=O)(=O)C4CCN(C5CN(c6ccc7c(c6)C(=O)N(C6CCC(=O)NC6=O)C7=O)C5)CC4)cc3)CC2)CN1c1ccc(C#N)c(Cl)c1 (stereo partly shown) [compound 163] | < 0.001 | – | < 0.01 | < 0.01 |
| C[C@H]1CC2(CCN(c3ccc(S(=O)(=O)C4CCN(CC5CN(c6ccc7c(c6)C(=O)N(C6CCC(=O)NC6=O)C7=O)C5)CC4)cc3)CC2)CN1c1ccc(C#N)c(Cl)c1 (stereo partly shown) [compound 164] | < 0.001 | – | < 0.1 | < 0.01 |
| C[C@H]1CC2(CCN(c3ccc(CN4CCN(C5CCN(c6cc7c(cc6F)C(=O)N(C6CCC(=O)NC6=O)C7=O)CC5)CC4)cn3)CC2)CN1c1ccc(C#N)c(Cl)c1 (stereo partly shown) [compound 165] | < 0.01 | – | < 0.01 | < 0.01 |
| C[C@H]1CC2(CCN(c3ccc(CN4CCC(N5CCN(c6ccc7c(c6)C(=O)N(C6CCC(=O)NC6=O)C7=O)CC5)CC4)cn3)CC2)CN1c1ccc(C#N)c(Cl)c1 (stereo partly shown) [compound 166] | < 0.01 | – | < 0.1 | < 0.01 |
| C[C@H]1CC2(CCN(c3ccc(CN4CCC(N5CCN(c6cc7c(cc6F)C(=O)N(C6CCC(=O)NC6=O)C7=O)CC5)CC4)cn3)CC2)CN1c1ccc(C#N)c(Cl)c1 (stereo partly shown) [compound 168] | < 0.01 | – | < 0.01 | < 0.01 |
| C[C@H]1CC2(CCN(c3cnc(CN4CCN(C5CCN(c6ccc7c(c6)C(=O)N(C6CCC(=O)NC6=O)C7=O)CC5)CC4)nc3)CC2)CN1c1ccc(C#N)c(Cl)c1 (stereo partly shown) [compound 171] | < 0.01 | – | < 0.01 | < 0.1 |
| C[C@H]1CC2(CCN(c3ccc(CN4CCN(C5CN(c6cc7c(cc6F)C(=O)N(C6CCC(=O)NC6=O)C7=O)C5)CC4)nc3)CC2)CN1c1ccc(C#N)c(Cl)c1 (stereo partly shown) [compound 172] | < 0.001 | – | < 0.01 | < 0.01 |
| C[C@H]1CC2(CCN(c3ccc(CN4CCN(C5CN(c6ccc7c(c6)C(=O)N(C6CCC(=O)NC6=O)C7=O)C5)CC4)nn3)CC2)CN1c1ccc(C#N)c(Cl)c1 (stereo partly shown) [compound 173] | < 0.001 | – | < 0.01 | < 0.1 |
| C[C@H]1CC2(CCN(c3ccc(CN4CCN(C5CN(c6cc7c(cc6F)C(=O)N(C6CCC(=O)NC6=O)C7=O)C5)CC4)nn3)CC2)CN1c1ccc(C#N)c(Cl)c1 (stereo partly shown) [compound 174] | < 0.001 | – | < 0.01 | < 0.01 |
| C[C@H]1CC2(CCN(c3cnc(CN4CCN(C5CN(c6cc7c(cc6F)C(=O)N(C6CCC(=O)NC6=O)C7=O)C5)CC4)nc3)CC2)CN1c1ccc(C#N)c(Cl)c1 (stereo partly shown) [compound 175] | < 0.001 | – | < 0.01 | < 0.01 |
| C[C@H]1CC2(CCN(c3ccc(CN4CCC(C5CN(c6ccc7c(c6)C(=O)N(C6CCC(=O)NC6=O)C7=O)C5)CC4)cn3)CC2)CN1c1ccc(C#N)c(Cl)c1 (stereo partly shown) [compound 176] | < 0.01 | – | < 0.01 | < 0.01 |
| C[C@H]1CC2(CCN(c3ccc(CN4CCC(C5CN(c6ccc7c(c6)C(=O)N(C6CCC(=O)NC6=O)C7=O)C5)CC4)nc3)CC2)CN1c1ccc(C#N)c(Cl)c1 (stereo partly shown) [compound 177] | < 0.001 | – | < 0.01 | < 0.01 |
| C[C@H]1CC2(CCN(c3ccc(CN4CC(C5CCN(c6ccc7c(c6)C(=O)N(C6CCC(=O)NC6=O)C7=O)CC5)C4)cn3)CC2)CN1c1ccc(C#N)c(Cl)c1 (stereo partly shown) [compound 178] | < 0.01 | – | < 0.1 | < 0.1 |
| C[C@H]1CC2(CCN(c3ccc(CN4CC(C5CCN(c6ccc7c(c6)C(=O)N(C6CCC(=O)NC6=O)C7=O)CC5)C4)nc3)CC2)CN1c1ccc(C#N)c(Cl)c1 (stereo partly shown) [compound 179] | < 0.01 | – | < 0.01 | < 0.1 |
| C[C@H]1CC2(CCN(c3ccc(CN4CCC(C5CCN(c6ccc7c(c6)C(=O)N(C6CCC(=O)NC6=O)C7=O)CC5)CC4)nc3)CC2)CN1c1ccc(C#N)c(Cl)c1 (stereo partly shown) [compound 181] | < 0.001 | – | < 0.01 | < 0.1 |
| C[C@H]1CC2(CCN(c3ccc(CN4CCN(C5CCN(c6ccc7c(c6)C(=O)N(C6CCC(=O)NC6=O)C7=O)CC5)CC4)nc3)CC2)CN1c1ccc(C#N)c(Cl)c1 (stereo partly shown) [compound 182] | < 0.001 | – | < 0.01 | < 0.1 |
| C[C@H]1CC2(CCN(c3ncc(CN4CCN(C5CN(c6ccc7c(c6)C(=O)N(C6CCC(=O)NC6=O)C7=O)C5)CC4)cn3)CC2)CN1c1ccc(C#N)c(Cl)c1 (stereo partly shown) [compound 183] | < 0.001 | – | < 0.1 | < 0.1 |
